Reference: ChEMBL document CHEMBL5226361, “Marine Sponge-Derived Alkaloid Induces Mitochondrial Dysfunction and Inhibits the PI3K/AKT/mTOR Signaling Pathway against Burkitt's Lymphoma” (J Nat Prod, 2023)
The source made the active and inactive calls. No cut-off for these calls is given here.

Experiments:
Raji [1] = assay: Induction of cell cycle arrest at G0/G1 phase in human Raji cells assessed as downregulation of CyclinE1 protein expression at 1.25 to 5 uM incubated for 24 to 48 hrs by Western blot analysis; assay type: functional, cell-based; conditions: dose 1.25-5 µM, time 24-48 hrs
[2] = Inhibition of PI3K/AKT/mTOR signalling pathway in human Raji cells assessed as inhibition of mTOR phosphorylation incubated for 24 hrs by Western blot analysis; assay type: cell-based; conditions: dose 1.25-5 µM
Raji [3] = assay: Effect on total PI3K protein level in human Raji cells at 1.25 to 5 uM incubated for 24 hrs by Western blot analysis; assay type: functional, cell-based; conditions: dose 1.25-5 µM
Daudi [4] = assay: Induction of apoptosis in human Daudi cells assessed as effect on caspase-8 protein expression at 0.75 to 3 uM incubated for 24 hrs by Western blot analysis; assay type: functional, cell-based; conditions: dose 0.75-3 µM
Daudi [5] = assay: Induction of apoptosis in human Daudi cells assessed as effect on cleaved caspase-8 protein expression at 0.75 to 3 uM incubated for 24 hrs by Western blot analysis; assay type: functional, cell-based; conditions: dose 0.75-3 µM
Daudi [6] = assay: Induction of cell cycle arrest at G0/G1 phase in human Daudi cells assessed as downregulation of CDK4 protein expression at 0.75 to 3 uM incubated for 24 to 48 hrs by Western blot analysis; assay type: functional, cell-based; conditions: dose 0.75-3 µM, time 24-48 hrs
Raji [7] = assay: Downregulation of c-Myc expression level in human Raji cells incubated for 24 hrs by Western blot analysis; assay type: functional, cell-based; conditions: dose 1.25-5 µM
Raji [8] = assay: Induction of apoptosis in human Raji cells assessed as necrotic cells at 5 uM incubated for 24 hrs by Annexin V-FITC/PI staining based flow cytometric analysis (reference value: 1.5%); assay type: functional
[9] = Inhibition of PI3K/AKT/mTOR signalling pathway in human Raji cells assessed as increase in ratio of AKT phosphorylation at […] residue to total AKT protein level at 5 uM incubated for 12 hrs in the presence of YS49 by Western blot analysis; assay type: cell-based
Raji [10] = assay: Induction of cell cycle arrest at G0/G1 phase in human Raji cells assessed as downregulation of CDK4 protein expression at 1.25 to 5 uM incubated for 24 to 48 hrs by Western blot analysis; assay type: functional, cell-based; conditions: dose 1.25-5 µM, time 24-48 hrs
Raji [11] = assay: Induction of apoptosis in human Raji cells assessed as downregulation of BCL-XL expression at 1.25 to 5 uM incubated for 24 hrs by Western blot analysis; assay type: functional, cell-based; conditions: dose 1.25-5 µM
Daudi [12] = assay: Induction of mitochondrial dysfunction in human Daudi cells assessed as decrease in ATP-5J protein expression at 1.5 to 3 uM incubated for 48 hrs by Western blot analysis; assay type: functional, cell-based; conditions: dose 1.5-3 µM
Daudi [13] = assay: Induction of apoptosis in human Daudi cells assessed as upregulation of cleaved PARP expression at 0.75 to 3 uM incubated for 24 hrs by Western blot analysis; assay type: functional, cell-based; conditions: dose 0.75-3 µM
Raji [14] = assay: Induction of apoptosis in human Raji cells assessed as necrotic cells at 5 uM incubated for 24 hrs in the presence of YS49 by Annexin V-FITC/PI staining based flow cytometric analysis (reference value: 1.5%); assay type: functional
[15] = Inhibition of PI3K/AKT/mTOR signalling pathway in human Daudi cells assessed as inhibition of AKT phosphorylation at […] residue incubated for 24 hrs by Western blot analysis; assay type: cell-based; conditions: dose 0.75-3 µM
Daudi [16] = assay: Induction of cell cycle arrest in human Daudi cells assessed as S phase cells at 3 uM incubated for 24 hrs by PI staining based flow cytometry analysis (reference value: 49.79%); assay type: functional
Raji [17] = assay: Induction of apoptosis in human Raji cells assessed as upregulation of cleaved PARP expression at 1.25 to 5 uM incubated for 24 hrs by Western blot analysis; assay type: functional, cell-based; conditions: dose 1.25-5 µM
Daudi [18] = assay: Induction of apoptosis in human Daudi cells assessed as late apoptotic cells at 3 uM incubated for 24 hrs in the presence of YS49 by Annexin V-FITC/PI staining based flow cytometric analysis (reference value: 0.0%); assay type: functional
Raji [19] = assay: Induction of apoptosis in human Raji cells assessed as upregulation of cleaved caspase-9 expression at 1.25 to 5 uM incubated for 24 hrs by Western blot analysis; assay type: functional, cell-based; conditions: dose 1.25-5 µM
Raji [20] = assay: Induction of apoptosis in human Raji cells assessed as upregulation of cleaved caspase-3 expression at 1.25 to 5 uM incubated for 24 hrs by Western blot analysis; assay type: functional, cell-based; conditions: dose 1.25-5 µM
Daudi [21] = assay: Induction of mitochondrial respiratory chain damage in human Daudi cells assessed as decrease in CYC1 protein expression at 1.5 to 3 uM incubated for 48 hrs by Western blot analysis; assay type: functional, cell-based; conditions: dose 1.5-3 µM
Raji [22] = assay: Induction of mitochondrial dysfunction in human Raji cells assessed as decrease in ATP-5H protein expression at 2.5 to 5 uM incubated for 48 hrs by Western blot analysis; assay type: functional, cell-based; conditions: dose 2.5-5 µM
Raji [23] = assay: Induction of apoptosis in human Raji cells assessed as effect on caspase-8 protein expression at 1.25 to 5 uM incubated for 24 hrs by Western blot analysis; assay type: functional, cell-based; conditions: dose 1.25-5 µM
Daudi [24] = assay: Induction of cell cycle arrest at G0/G1 phase in human Daudi cells assessed as downregulation of Cyclin E1 protein expression at 0.75 to 3 uM incubated for 24 to 48 hrs by Western blot analysis; assay type: functional, cell-based; conditions: dose 0.75-3 µM, time 24-48 hrs
Raji [25] = assay: Induction of apoptosis in human Raji cells assessed as early apoptotic cells at 5 uM incubated for 24 hrs by Annexin V-FITC/PI staining based flow cytometric analysis (reference value: 0.8%); assay type: functional
Raji [26] = assay: Induction of mitochondrial dysfunction in human Raji cells assessed as decrease in ATP content incubated for 24 hrs by CellTiter-Lumi […] assay; assay type: functional, cell-based; conditions: dose 1.25-5 µM
Raji [27] = assay: Induction of cell cycle arrest in human Raji cells assessed as S phase cells at 5 uM incubated for 48 hrs by PI staining based flow cytometry analysis (reference value: 69.78%); assay type: functional
Daudi [28] = assay: Induction of cell cycle arrest at G0/G1 phase in human Daudi cells assessed as upregulation of p21 protein expression at 0.75 to 3 uM incubated for 24 to 48 hrs by Western blot analysis; assay type: functional, cell-based; conditions: dose 0.75-3 µM, time 24-48 hrs
Raji [29] = assay: Induction of mitochondrial dysfunction in human Raji cells assessed as decrease in ATP-5J protein expression at 2.5 to 5 uM incubated for 48 hrs by Western blot analysis; assay type: functional, cell-based; conditions: dose 2.5-5 µM
Daudi [30] = assay: Induction of apoptosis in human Daudi cells assessed as upregulation of cleaved caspase-3 expression at 0.75 to 3 uM incubated for 24 hrs by Western blot analysis; assay type: functional, cell-based; conditions: dose 0.75-3 µM
Daudi [31] = assay: Induction of apoptosis in human Daudi cells assessed as early apoptotic cells at 3 uM incubated for 24 hrs by Annexin V-FITC/PI staining based flow cytometric analysis (reference value: 1.7%); assay type: functional
[32] = Inhibition of PI3K/AKT/mTOR signalling pathway in human Daudi cells assessed as increase in ratio of mTOR phosphorylation to total mTOR protein level at 3 uM incubated for 12 hrs in the presence of YS49 by Western blot analysis; assay type: cell-based
Daudi [33] = assay: Induction of apoptosis in human Daudi cells assessed as upregulation of cytochrome C expression at 0.75 to 3 uM incubated for 24 hrs by Western blot analysis; assay type: functional, cell-based; conditions: dose 0.75-3 µM
Raji [34] = assay: Induction of cell cycle arrest at G0/G1 phase in human Raji cells assessed as upregulation of p21 protein expression at 1.25 to 5 uM incubated for 24 to 48 hrs by Western blot analysis; assay type: functional, cell-based; conditions: dose 1.25-5 µM, time 24-48 hrs
Daudi [35] = assay: Induction of mitochondrial oxidative damage in human Daudi cells assessed as increase in intracellular mitochondrial superoxide generation at 3 uM incubated for 1 to 6 hrs by MitoSOX red dye based flow cytometric analysis; assay type: functional, cell-based; conditions: time 1-6 hrs

In the case of `COc1c(OC)c2c3c(nccc3c1-c1cc(C)cc(C)c1)C(c1cc(C)cc(C)c1)=CN2`, the Activity (Raji [1]) is reported as “Active”, the inhibition [2] is reported as “Dose-Dependent Effect” and the Activity (Raji [3]) is reported as “inactive”. The Activity (Daudi [4]) was “inactive”, the Activity (Daudi [5]) was “inactive” and the Activity (Daudi [6]) was “Active”. The Activity (Raji [7]) was “Dose-Dependent Effect”, the Activity (Raji [8]) was 17% and the inhibition [9] was “inactive”. The Activity (Raji [10]) was “Active”, the Activity (Raji [11]) was “Active” and the Activity (Daudi [12]) was “Active”. For the same molecule, the Activity (Daudi [13]) was “Active”, the Activity (Raji [14]) was 20.8% and the inhibition [15] was “Dose-Dependent Effect”. The Activity (Daudi [16]) was 30.03%, the Activity (Raji [17]) was “Active” and the Activity (Daudi [18]) was 1.5%. For the same molecule, the Activity (Raji [19]) was “Active”, the Activity (Raji [20]) was “Active” and the Activity (Daudi [21]) was “Active”. The Activity (Raji [22]) was “Active”, the Activity (Raji [23]) was “inactive” and the Activity (Daudi [24]) was “Active”. The Activity (Raji [25]) was 21.7%, the Activity (Raji [26]) was “Dose-Dependent Effect” and the Activity (Raji [27]) was 49.74%. The Activity (Daudi [28]) was “Active”, the Activity (Raji [29]) was “Active” and the Activity (Daudi [30]) was “Active”. For the same molecule, the Activity (Daudi [31]) was 18.6%, the inhibition [32] was “inactive” and the Activity (Daudi [33]) was “Active”. The Activity (Raji [34]) was “Active” and the Activity (Daudi [35]) was “Active”.
